US9527850B2, “Benzyl piperidine compounds as lysophosphatidic acid (LPA) receptor antagonist” (Merck Patent GmbH, priority 2011, dated 2016)

molecular target: T1, LPA2 receptor (LPA2R) (Homo sapiens, UniProt Q9HBW0); assay: LPA2R-Calciumflux assay (intracellular calcium mobilisation, FLIPR); type: cell-based; conditions: U2OS cells recombinant expressing LPA2R; inhibition of LPA-induced Ca-flux; 10 concentrations 30 uM to 1 nM, 1% DMSO
T1 construct: expressed in transfected cells; host or cells: U2OS
T1 sequence (Q9HBW0 whole entry): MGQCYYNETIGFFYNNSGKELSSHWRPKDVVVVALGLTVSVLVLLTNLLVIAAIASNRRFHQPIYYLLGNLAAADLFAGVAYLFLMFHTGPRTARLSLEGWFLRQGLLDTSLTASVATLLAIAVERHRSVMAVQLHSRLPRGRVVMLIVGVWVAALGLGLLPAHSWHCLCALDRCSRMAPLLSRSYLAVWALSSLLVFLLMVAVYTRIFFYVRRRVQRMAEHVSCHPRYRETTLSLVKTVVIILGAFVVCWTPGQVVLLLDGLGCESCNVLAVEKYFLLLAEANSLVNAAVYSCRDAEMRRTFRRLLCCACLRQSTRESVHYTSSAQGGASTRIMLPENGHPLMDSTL
From the text: The assay detects intra cellular calcium which is generated by cells upon activation of the LPA2 receptor by its ligand LPA. This transient calcium mobilization can be monitored using a commercial calcium detection kit (e.g. from Molecular Devices). The main component of such a kit is a dye, which becomes fluorescent when calcium is present—a transient fluorescence signal after laddition of a ligand to a test well are the result. Readers like the FLIPR (Molecular Devices) can be used to monitor such transient “Ca-flux” signals.
The signals are calculated according to peak maximum minus base line.
The assay is performed in microplates (384 wells per plate).
LPA2R-Calciumflux Assay Protocol
The assay is run according to the following procedure: • 50 uL seed cells (10000 cells/well in DMEM buffer) • Incubate 24 h at 37° C., 10% CO2 • aspirate medium • 50 uL add calcium dye 1×HBSS/HEPES buffer • incubate 1 h at 37° C. (“loading”) • equilibrate 10 min at RT • 5 uL add compounds in HEPES buffer • shake 10 sec. at 1000 rpm • incubate 15 min at RT • 20 uL add LPA (in the FLIPR Tetra) in Krebs-buffer/BSA & measurement
The cells are seeded in DMEM buffer (DMEM, 10% FCS, 10 mM HEPES, 1% Pen/Strep).
Dye loading is done in HBSS/HEPES buffer (100 mL 10×HBSS+20 mL 1M HEPES+880 mL water, pH 7.4)
The LPA is added in Krebs/BSA buffer (120 mM NaCl, 5 mM KCl, 0.62 mM MgSO4, 1.8 mM CaCl2, 10 mM HEPES, 6 mM D(+)-Glucose, 0.2% BSA, pH 7.4).
The compounds are pre-diluted in HEPES buffer (20 mM, pH 7.4), whereby the final DMSO content in the assay is kept at 1%. The compounds are pre-diluted in order to generate dose response series on the microplates. The dose response series consist of 10 concentrations for each compound from 30 uM final to 1 nM final. From all compound wells the resulting signals are referred to control wells (located on each plate besides the compound wells) in terms of % activity.
From these % activity values—along with the corresponding compound concentrations—IC50 values are fitted for each compound using standard fitting programs such as Graphpad Prism. Here the method “log(inhibitor) vs. response—Variable slope” is used.

Structure (SMILES)	IC50 [µM]
Cc1ccc(CN2CCCC[C@H]2c2cc3ccccc3[nH]2)cc1 [Example Compound 143, 2-[(S)-1-(4-Methyl-benzyl)-piperidin-2-yl]-1H-indole]	> 15
COc1ccc(CN2CCCCC2c2cc3ccccc3[nH]2)cc1 (stereo not drawn) [compound 1, 2-[1-(4-Methoxy-benzyl)-piperidin-2-yl]-1H-indole]	0.5 to 5
Cc1cccc(CN2CCCCC2c2cc3ccccc3[nH]2)c1 (stereo not drawn) [compound 2, 2-[1-(3-Methyl-benzyl)-piperidin-2-yl]-1H-indole]	< 0.5
Fc1ccc(CN2CCCCC2c2cc3ccccc3[nH]2)cc1 (stereo not drawn) [compound 3, 2-[1-(4-Fluoro-benzyl)-piperidin-2-yl]-1H-indole]	< 0.5
COc1cccc(CN2CCCCC2c2cc3ccccc3[nH]2)c1 (stereo not drawn) [compound 4, 2-[1-(3-Methoxy-benzyl)-piperidin-2-yl]-1H-indole]	< 0.5
Cc1ccc(CN2CCCCC2c2cc3ccccc3[nH]2)cc1C (stereo not drawn) [compound 5, 2-[1-(3,4-Dimethyl-benzyl)-piperidin-2-yl]-1H-indole]	< 0.5
c1ccc(CN2CCCCC2c2cc3ccccc3[nH]2)cc1 (stereo not drawn) [compound 6, 2-(1-Benzyl-piperidin-2-yl)-1H-indole]	0.5 to 5
Cn1cc(CN2CCCCC2c2cc3ccccc3[nH]2)c2ccccc21 (stereo not drawn) [compound 8, 3-[2-(1H-Indol-2-yl)-piperidin-1-ylmethyl]-1-methyl-1H-indole]	0.5 to 5
CC(C)n1cc(CN2CCCCC2c2cc3ccccc3[nH]2)c2ccccc21 (stereo not drawn) [compound 9, 3-[2-(1H-Indol-2-yl)-piperidin-1-ylmethyl]-1-isopropyl-1H-indole]	0.5 to 5
Cn1cccc1CN1CCCCC1c1cc2ccccc2[nH]1 (stereo not drawn) [compound 10]	5 to 15
Cc1ccc(CN2CCCCC2c2cc3ccccc3[nH]2)cc1 (stereo not drawn) [compound 13, 2-[1-(4-Methyl-benzyl)-piperidin-2-yl]-1H-indole]	< 0.5
Cc1cccc(CN2CCCCC2c2cc3cc(F)ccc3[nH]2)c1 (stereo not drawn) [compound 14, 5-Fluoro-2-[1-(3-methyl-benzyl)-piperidin 2-yl]-1H-indole]	0.5 to 5
Cc1ccc(CN2CCCCC2c2cc3cc(F)ccc3[nH]2)cc1C (stereo not drawn) [compound 15, 2-[1-(3,4-Dimethyl-benzyl)-piperidin-2-yl]-5-fluoro-1H-indole]	0.5 to 5
FC(F)(F)c1ccccc1CN1CCCCC1c1cc2ccccc2[nH]1 (stereo not drawn) [compound 16]	5 to 15
FC(F)(F)c1cccc(CN2CCCCC2c2cc3ccccc3[nH]2)c1 (stereo not drawn) [compound 17]	5 to 15
FC(F)(F)c1ccc(CN2CCCCC2c2cc3ccccc3[nH]2)cc1 (stereo not drawn) [compound 18]	0.5 to 5
N#Cc1ccc(CN2CCCCC2c2cc3ccccc3[nH]2)cc1 (stereo not drawn) [compound 19, 4-[2-(1H-Indol-2-yl)-piperidin-1-ylmethyl]-benzonitrile]	5 to 15
Cc1cccc(CN2CCCCC2c2cc3cccc(C)c3[nH]2)c1 (stereo not drawn) [compound 20, 7-Methyl-2-[1-(3-methyl-benzyl)-piperidin-2-yl]-1H-indole]	0.5 to 5
Cc1cccc(CN2CCCCC2c2cc3cc(F)cc(F)c3[nH]2)c1 (stereo not drawn) [compound 21, 5,7-Difluoro-2-[1-(3-methyl-benzyl)-piperidin-2-yl]-1H-indole]	5 to 15
Cc1ccc(CN2CCCCC2c2cc3cc(F)cc(F)c3[nH]2)cc1 (stereo not drawn) [compound 22, 5,7-Difluoro-2-[1-(4-methyl-benzyl)-piperidin-2-yl]-1H-indole]	5 to 15
Cc1ccc(CN2CCCCC2c2cc3cc(F)cc(F)c3[nH]2)cc1C (stereo not drawn) [compound 23, 2-[1-(3,4-Dimethyl-benzyl)-piperidin-2-yl]-5,7-difluoro-1H-indole]	0.5 to 5
Cc1ccc(CN2CCCCC2c2cc3c(F)ccc(F)c3[nH]2)cc1C (stereo not drawn) [compound 24, 2-[1-(3,4-Dimethyl-benzyl)-piperidin-2-yl]-4,7-difluoro-1H-indole]	0.5 to 5

Results, then the compound that gave them:

IC50 [µM]	Structure (SMILES)
0.5 to 5	CCOC(=O)c1ccc(CN2CCCCC2c2cc3ccccc3[nH]2)cc1 (stereo not drawn) [compound 25, 4-[2-(1H-Indol-2-yl)-piperidin-1-ylmethyl]-benzoic acid ethyl ester]
0.5 to 5	CC1CCCC(c2cc3ccccc3[nH]2)N1Cc1ccccc1O (stereo not drawn) [compound 26, 2-[2-(1H-Indol-2-yl)-6-methyl-piperidin-1-ylmethyl]-phenol]
< 0.5	Cc1ccc(CN2C(C)CCCC2c2cc3ccccc3[nH]2)cc1C (stereo not drawn) [compound 27, 2-[1-(3,4-Dimethyl-benzyl)-6-methyl-piperidin-2-yl]-1H-indole]
0.5 to 5	COc1ccccc1CN1C(C)CCCC1c1cc2cc(F)ccc2[nH]1 (stereo not drawn) [compound 28, 5-Fluoro-2-[1-(2-methoxy-benzyl)-6-methyl-piperidin-2-yl]-1H-indole]
0.5 to 5	CC1CCCC(c2cc3cc(F)ccc3[nH]2)N1Cc1ccccc1O (stereo not drawn) [compound 29, 2-[2-(5-Fluoro-1H-indol-2-yl)-6-methyl-piperidin-1-ylmethyl]-phenol]
< 0.5	Cc1cccc(CN2C(C)CCCC2c2cc3cc(F)ccc3[nH]2)c1 (stereo not drawn) [compound 30, 5-Fluoro-2-[6-methyl-1-(3-methyl-benzyl)-piperidin-2-yl]-1H-indole]
0.5 to 5	CC1CCCC(c2cc3cc(F)ccc3[nH]2)N1Cc1cccc([N+](=O)[O-])c1 (stereo not drawn) [compound 31, 5-Fluoro-2-[6-methyl-1-(3-nitro-benzyl)-piperidin-2-yl]-1H-indole]
0.5 to 5	CC1CCCC(c2cc3cc(F)ccc3[nH]2)N1Cc1ccc(C#N)cc1 (stereo not drawn) [compound 32, 4-[2-(5-Fluoro-1H-indol-2-yl)-6-methyl-piperidin-1-ylmethyl]-benzonitrile]
0.5 to 5	CC1CCCC(c2cc3cc(F)ccc3[nH]2)N1Cc1ccc(S(C)(=O)=O)cc1 (stereo not drawn) [compound 33]
0.5 to 5	CCOc1ccc(CN2C(C)CCCC2c2cc3cc(F)ccc3[nH]2)cc1 (stereo not drawn) [compound 34, 2-[1-(4-Ethoxy-benzyl)-6-methyl-piperidin-2-yl]-5-fluoro-1H-indole]
0.5 to 5	CCOC(=O)c1ccc(CN2C(C)CCCC2c2cc3cc(F)ccc3[nH]2)cc1 (stereo not drawn) [compound 35, 4-[2-(5-Fluoro-1H-indol-2-yl)-6-methyl-piperidin-1-ylmethyl]-benzoic acid ethyl ester]
< 0.5	CC1CCCC(c2cc3cc(F)ccc3[nH]2)N1Cc1ccc(F)cc1 (stereo not drawn) [compound 36, 5-Fluoro-2-[1-(4-fluoro-benzyl)-6-methyl-piperidin-2-yl]-1H-indole]
0.5 to 5	CC1CCCC(c2cc3cc(F)ccc3[nH]2)N1Cc1ccc(F)cc1F (stereo not drawn) [compound 37, 2-[1-(2,4-Difluoro-benzyl)-6-methyl-piperidin-2-yl]-5-fluoro-1H-indole]
< 0.5	Cc1ccc(CN2C(C)CCCC2c2cc3cc(F)ccc3[nH]2)o1 (stereo not drawn) [compound 38, 5-Fluoro-2-[6-methyl-1-(5-methyl-furan-2-ylmethyl)-piperidin-2-yl]-1H-indole]
0.5 to 5	CC1CCCC(c2cc3cc(F)ccc3[nH]2)N1Cc1ccc(Cl)cc1 (stereo not drawn) [compound 39, 2-[1-(4-Chloro-benzyl)-6-methyl-piperidin-2-yl]-5-fluoro-1H-indole]
< 0.5	COc1cccc(CN2C(C)CCCC2c2cc3cc(F)ccc3[nH]2)c1 (stereo not drawn) [compound 40, 5-Fluoro-2-[1-(3-methoxy-benzyl)-6-methyl-piperidin-2-yl]-1H-indole]
0.5 to 5	CC1CCCC(c2cc3cc(F)ccc3[nH]2)N1Cc1cccnc1 (stereo not drawn) [compound 41, 5-Fluoro-2-(6-methyl-1-pyridin-3-ylmethyl-piperidin-2-yl)-1H-indole]
5 to 15	N#Cc1ccc(CN2CCCCC2c2cc3c(F)ccc(F)c3[nH]2)cc1 (stereo not drawn) [compound 42, 4-[2-(4,7-Difluoro-1H-indol-2-yl)-piperidin-1-ylmethyl]-benzonitrile]
0.5 to 5	Fc1ccc(F)c2[nH]c(C3CCCCN3)cc12 (stereo not drawn) [compound 44, 4,7-Difluoro-2-piperidin-2-yl-1H-indole]
0.5 to 5	CC1CCCC(c2cc3cc(F)ccc3[nH]2)N1 (stereo not drawn) [compound 45, 5-Fluoro-2-(6-methyl-piperidin-2-yl)-1H-indole]
0.5 to 5	Cc1ccc(CN2C(C)CCCC2c2cc3cc(F)ccc3[nH]2)cc1 (stereo not drawn) [compound 46, 5-Fluoro-2-[6-methyl-1-(4-methyl-benzyl)-piperidin-2-yl]-1H-indole]
0.5 to 5	COc1ccc(CN2CCCCC2c2nc3cc(F)ccc3[nH]2)cc1 (stereo not drawn) [compound 47]
0.5 to 5	COc1ccc(CN2CCCCC2c2cc3ccccc3o2)cc1 (stereo not drawn) [compound 48, 2-Benzofuran-2-yl-1-(4-methoxy-benzyl)-piperidine]
